The record followed here is patent US20250000870A1, “Pharmaceutical Combinations for Treating Cancer” (Cellestia Biotech AG, priority 2021, published 2025).

Holding throughout (type): cell-based, Human
Conditions in all cases: Drug 2 in combination with 6-(4-(tert-butyl)phenoxy)pyridin-3-amine (Drug 1), 72 hours

One experiment relates to MV-4-11 leukemic cells. Description: PrestoBlue combination screening with 6-(4-(tert-butyl)phenoxy)pyridin-3-amine, ZIP synergy analysis. Here is the method: (§1) Cell lines and drug combinations: Human T-ALL, AML and breast cancer cell lines RPMI-8402, MV-4-11 and HCC1187 were cultured under mycoplasma free conditions at 37° C. in RPMI-1640 media supplemented with 10% FCS (RPMI-8402 and HCC1187 cells) and IMDM media supplemented with 10% FCS (MV-4-11 cells). The kinase inhibitors listed in table 5 were used in combination with 6-(4-(tert-butyl) phenoxy)pyridin-3-amine.
(§2) 6-(4-(tert-butyl) phenoxy)pyridin-3-amine combination screening: Human cancer cells RPMI-8402, MV-4-11 and HCC1187 were seeded at a density of 10′000 cells/well in 96 well plate format and cultured in 100 μl of growth media. Cells were treated with a combination of 6-(4-(tert-butyl) phenoxy)pyridin-3-amine (concentration range from 30 nM to 100 μM) and chemical compounds listed in table 5 (concentration range from 1 μM to 100 μM) for 72 hours. Concentration range used for each compound was determined based on individual IC50 values i.e concentration range selected flanks IC50 value of each compound. Each of the 2 compounds were combined with 6-(4-(tert-butyl) phenoxy)pyridin-3-amine at different concentrations generating an 6×9 matrix in duplicates. PrestoBlue® readout was taken using Sense (Hidex) plate reader.
(§3) PrestoBlue® viability assay: PrestoBlue® proliferation assays were performed to determine the growth kinetics of compound treated cells. PrestoBlue® consists of a cell permeable substrate resazurin. In metabolically active and proliferating cells, resazurin is converted to resorufin due to an intrinsic reducing power of live cells and produces a red fluorescence. Therefore, production of resorufin serves as an indicator of the viability of the cell population. Proliferation assays were performed by seeding 10′000 cells/well in 96 well plate format. Cells were treated in triplicates (single agent) or duplicates (combinations) with pre-determined concentration of compounds as a single agent or in combination with 6-(4-(tert-butyl) phenoxy)pyridin-3-amine for 72 hours. To determine growth kinetics, PrestoBlue® (Invitrogen) was added to each well and incubated for 4 hours. PrestoBlue® readout was taken using Sense (Hidex) plate reader.
(§4) Data analysis for combination screening: Synergistic interaction analysis was performed using SynergyFinder software as described by Ianevski A, He L, Aittokallio T, Tang J. Bioinformatics. 2017 Aug. 1;33 (15): 2413-2415. doi: 10.1093/bioinformatics/btx162.SynergyFinder: a web application for analyzing drug combination dose-response matrix data). […] Regions of interest were defined as concentration combination showing both synergistic interaction and significant absolute activity (>60%).

Experiment [1] concerns RPMI-8402 leukemic cells. Described as above. Here is the method:
as §1, §2, §3, §4

Experiment [2] concerns HCC1187 triple negative breast cancer cells. The description is as above. Here is the method: as §1, §2, §3, §4
The test system of experiment [3] is RPMI-8402 leukemic cells. Description: alamarBlue combination screening with 6-(4-(tert-butyl)phenoxy)pyridin-3-amine, ZIP synergy analysis. Here is the method:
(§5) The kinase inhibitors listed in table 1 were used in combination with 6-(4-(tert-butyl) phenoxy)pyridin-3-amine.
(§6) Cells were treated with a combination of 6-(4-(tert-butyl) phenoxy)pyridin-3-amine (concentration range from 150 nM to […]) and chemical compounds listed in table 1 (concentration range from 75 nM to 20 μM) for 72 hours. Concentration range used for each compound was determined based on individual IC50 values i.e concentration range selected flanks IC50 value of each compound. Each of the 8 compounds were combined with 6-(4-(tert-butyl) phenoxy)pyridin-3-amine at different concentrations generating an 8×10 matrix in duplicates, alamarBlue® readout was taken using Infinite® F500 (Tecan) plate reader. All volumes (cells and alamarBlue®) were dispensed using Multidrop Combi dispenser using a standard cassette (Speed MEDIUM).
(§7) Compound management and dispensing: All compounds were prepared as stock solution at 10 mM in pure DMSO. […] To create 384 well working plates, different volumes of stock solutions were plated into 384 well plates by using ECHO 550 acoustic dispenser (Labcyte) to generate the final concentration of interest for each drug, either alone or in matrix combination.
(§8) alamarBlue® viability assay: alamarBlue® proliferation assays were performed to determine the growth kinetics of compound treated cells, alamarBlue® consists of a cell permeable substrate resazurin. In metabolically active and proliferating cells, resazurin is converted to resorufin due to an intrinsic reducing power of live cells and produces a red fluorescence. Therefore, production of resorufin serves as an indicator of the viability of the cell population. Proliferation assays were performed by seeding 1500 cells/well in 384 well plate format. Cells were treated in duplicates with pre-determined concentration of compounds as a single agent or in combination with 6-(4-(tert-butyl) phenoxy)pyridin-3-amine for 72 hours. To determine growth kinetics, alamarBlue® (Invitrogen) was added to each well and incubated for 4 hours, alamarBlue® readout was taken using Infinite® F500 (Tecan) plate reader.
(§9) Data analysis for combination screening: Synergistic interaction analysis was performed using SynergyFinder software as described by Ianevski A, He L, Aittokallio T, Tang J. Bioinformatics. […] To mitigate the impact of edge-effects, correction was applied for all analyses. Regions of interest were defined as concentration combination showing both synergistic interaction and significant absolute activity (>60%).

The test system of experiment [4] is MCF-7 ER+ breast cancer cells. The experiment is described as above. The protocol:
as §5, §6, §7, §8, §9

The subject of experiment [5] is HCC1187 triple negative breast cancer cells. Described as above. Here is the method: as §5, §6, §7, §8, §9

SMILES strings stand for the structures. Counter-ions that a name gives are not always drawn.

For the compound `CNC(=O)c1ccccc1Sc1ccc2c(/C=C/c3ccccn3)n[nH]c2c1` [Axitinib, N-Methyl-2-[[3-[(E)-2-pyridin-2-ylethenyl]-1H-indazol-6-yl]sulfanyl]benzamide], the Conclusion entry (in the experiment on MV-4-11 leukemic cells; in the experiment on RPMI-8402 leukemic cells [1]; in experiment [2]) was “Synergistic (>0 implies synergistic interaction)” each time.

As to `CC#CC(=O)N1CCC[C@H]1c1nc(-c2ccc(C(=O)Nc3ccccn3)cc2)c2c(N)nccn12` [Acalabrutinib, 4-[8-amino-3-[(2S)-1-(1-oxo-2-butyn-1-yl)-2-pyrrolidinyl]imidazo[1,5-a]pyrazin-1-yl]-N-2-pyridinyl-benzamide], the Conclusion result (in the experiment on RPMI-8402 leukemic cells [3]; in experiment [4]; in experiment [5]) was “Synergistic (>0 implies synergistic interaction)” in each case. Further, the ZIP score in the experiment on RPMI-8402 leukemic cells [3] was 0.70; in experiment [4] it was 6.86; in experiment [5], 3.33.

Take `Cn1c(=O)n(-c2ccc(C(C)(C)C#N)cc2)c2c3cc(-c4cnc5ccccc5c4)ccc3ncc21` [BEZ235, 4-[2,3-dihydro-3-methyl-2-oxo-8-(3-quinolinyl)-1H-imidazo[4,5-c]quinolin-1-yl]-a,a-dimethyl-benzeneacetonitrile]: the Conclusion entry (in the experiment with RPMI-8402 leukemic cells [3]; in experiment [4]; in experiment [5]) was “Synergistic (>0 implies synergistic interaction)” each time. The ZIP score was 7.20 with RPMI-8402 leukemic cells [3], 17.40 in experiment [4] and 13.94 in experiment [5].

Turning to `C[C@@H](Oc1cc(-c2cnn(C3CCNCC3)c2)cnc1N)c1c(Cl)ccc(F)c1Cl` [Crizotinib, 3-[(1R)-1-(2,6-dichloro-3-fluorophenyl)ethoxy]-5-[1-(4-piperidinyl)-1H-pyrazol-4-yl]-2-pyridinamine], the Conclusion result is reported as “Synergistic (>0 implies synergistic interaction)” in the experiment on RPMI-8402 leukemic cells [3] and “No (0 implies no interaction)” in experiment [5]. In addition, the ZIP score in the experiment with RPMI-8402 leukemic cells [3] came to 2.38; in experiment [5] it was 0.10.

With `CC[C@H](Nc1ncnc2[nH]cnc12)c1nc2cccc(F)c2c(=O)n1-c1ccccc1` [Idelalisib, 5-Fluor-3-phenyl-2-{(1S)-1-[(7H-purin-6-yl)amino]propyl}chinazolin-4 (3H)-on], in the experiment with RPMI-8402 leukemic cells [3], the Conclusion entry is recorded as “Synergistic (>0 implies synergistic interaction)” and the ZIP score came out at 1.12.

For the compound `CC(C)c1cc(CNc2nc(Nc3cc(C4CC4)[nH]n3)cc(N3CCN(C)CC3)n2)on1` [XL228, N4-(5-cyclopropyl-1H-pyrazol-3-yl)-N2-[[3-(1-methylethyl)-5-isoxazolyl]methyl]-6-(4-methyl-1-piperazinyl)-2,4-pyrimidinediamine], the Conclusion entry (in the experiment with RPMI-8402 leukemic cells [3]; in experiment [4]; in experiment [5]) was “Synergistic (>0 implies synergistic interaction)” throughout. The ZIP score is listed as 15.0 in the experiment with RPMI-8402 leukemic cells [3], 21.86 in experiment [4] and 23.67 in experiment [5].

As for `NC1(c2ccc(-c3nc4ccn5c(=O)[nH]nc5c4cc3-c3ccccc3)cc2)CCC1` [MK-2206, 8-[4-(1-aminocyclobutyl)phenyl]-9-phenyl-1,2,4-triazolo[3,4-f][1,6]naphthyridin-3 (2H)-one, dihydrochloride], the Conclusion result (in the experiment on RPMI-8402 leukemic cells [3]; in experiment [4]; in experiment [5]) was “Synergistic (>0 implies synergistic interaction)” in each case. Also, the ZIP score is reported as 8.51 in the experiment on RPMI-8402 leukemic cells [3], 16.97 in experiment [4] and 14.89 in experiment [5].

For the compound `COc1cc2nccc(Oc3ccc(NC(=O)NC4CC4)c(Cl)c3)c2cc1C(N)=O` [Lenvatinib, 4-(3-chloro-4-(3-cyclopropylureido)phenoxy)-7-methoxyquinoline-6-carboxamide], the Conclusion result (with MV-4-11 leukemic cells; in the experiment with RPMI-8402 leukemic cells [1]; in experiment [2]) was “Synergistic (>0 implies synergistic interaction)” in each case. Also, the ZIP score with MV-4-11 leukemic cells worked out at 5.9; in the experiment with RPMI-8402 leukemic cells [1] it was 41.4; in experiment [2], 11.2.

Consider `O=C(Nc1c[nH]nc1-c1nc2cc(CN3CCOCC3)ccc2[nH]1)NC1CC1` [AT9283, N-Cyclopropyl-N′-[3-[6-(4-morpholinylmethyl)-1H-benzimidazol-2-yl]-1H-pyrazol-4-yl]-urea], for which the Conclusion result (in the experiment on RPMI-8402 leukemic cells [3]; in experiment [4]; in experiment [5]) was “Synergistic (>0 implies synergistic interaction)” throughout. Moreover, the ZIP score amounted to 12.40 in the experiment with RPMI-8402 leukemic cells [3], 8.38 in experiment [4] and 12.99 in experiment [5].

Consider `CO[C@H]1C[C@@H]2CC[C@@H](C)[C@@](O)(O2)C(=O)C(=O)N2CCCC[C@H]2C(=O)O[C@H]([C@H](C)C[C@@H]2CC[C@@H](OC(=O)C(C)(CO)CO)[C@H](OC)C2)CC(=O)[C@H](C)/C=C(\C)[C@@H](O)[C@@H](OC)C(=O)[C@H](C)C[C@H](C)/C=C/C=C/C=C/1C` [Temsirolimus, 42-[3-Hydroxy-2-(hydroxymethyl)-2-methylpropanoate]-rapamycin], for which the Conclusion entry (with RPMI-8402 leukemic cells [3]; in experiment [4]; in experiment [5]) was “Synergistic (>0 implies synergistic interaction)” each time. Also, the ZIP score in the experiment on RPMI-8402 leukemic cells [3] was 18.03; in experiment [4], 23.81; in experiment [5], 23.04.
